Measurements from publication PMC8792998 (Journal of medicinal chemistry, 2021).

Experiments:
[1] = test system: C. parvum; assay: C. parvum-infected HCT-8 cell assay; type: cell-based, Cryptosporidium parvum; conditions: for fold loss of potency: Cp HCT-8 EC50, Table 1 linker SAR, comparator not given; for change of potency, in words: Cp HCT-8 assay, Table 1 linker SAR
[2] = test system: C. parvum; assay: C. parvum time-kill curve; type: cell-based, Cryptosporidium parvum; conditions: for effect on parasite numbers in time-kill assay: compound added at multiples of EC90 24 hours after infection
[3] = test system: HCT-8 cells; assay: Host cell toxicity, CellTiter AQueous colorimetric assay; type: cell-based, human
[4] = biological target: T1, hERG (Homo sapiens, UniProt Q12809); assay: hERG-CHO automated patch clamp electrophysiology; type: cell-based
T1 sequence (Q12809 whole entry, canonical isoform): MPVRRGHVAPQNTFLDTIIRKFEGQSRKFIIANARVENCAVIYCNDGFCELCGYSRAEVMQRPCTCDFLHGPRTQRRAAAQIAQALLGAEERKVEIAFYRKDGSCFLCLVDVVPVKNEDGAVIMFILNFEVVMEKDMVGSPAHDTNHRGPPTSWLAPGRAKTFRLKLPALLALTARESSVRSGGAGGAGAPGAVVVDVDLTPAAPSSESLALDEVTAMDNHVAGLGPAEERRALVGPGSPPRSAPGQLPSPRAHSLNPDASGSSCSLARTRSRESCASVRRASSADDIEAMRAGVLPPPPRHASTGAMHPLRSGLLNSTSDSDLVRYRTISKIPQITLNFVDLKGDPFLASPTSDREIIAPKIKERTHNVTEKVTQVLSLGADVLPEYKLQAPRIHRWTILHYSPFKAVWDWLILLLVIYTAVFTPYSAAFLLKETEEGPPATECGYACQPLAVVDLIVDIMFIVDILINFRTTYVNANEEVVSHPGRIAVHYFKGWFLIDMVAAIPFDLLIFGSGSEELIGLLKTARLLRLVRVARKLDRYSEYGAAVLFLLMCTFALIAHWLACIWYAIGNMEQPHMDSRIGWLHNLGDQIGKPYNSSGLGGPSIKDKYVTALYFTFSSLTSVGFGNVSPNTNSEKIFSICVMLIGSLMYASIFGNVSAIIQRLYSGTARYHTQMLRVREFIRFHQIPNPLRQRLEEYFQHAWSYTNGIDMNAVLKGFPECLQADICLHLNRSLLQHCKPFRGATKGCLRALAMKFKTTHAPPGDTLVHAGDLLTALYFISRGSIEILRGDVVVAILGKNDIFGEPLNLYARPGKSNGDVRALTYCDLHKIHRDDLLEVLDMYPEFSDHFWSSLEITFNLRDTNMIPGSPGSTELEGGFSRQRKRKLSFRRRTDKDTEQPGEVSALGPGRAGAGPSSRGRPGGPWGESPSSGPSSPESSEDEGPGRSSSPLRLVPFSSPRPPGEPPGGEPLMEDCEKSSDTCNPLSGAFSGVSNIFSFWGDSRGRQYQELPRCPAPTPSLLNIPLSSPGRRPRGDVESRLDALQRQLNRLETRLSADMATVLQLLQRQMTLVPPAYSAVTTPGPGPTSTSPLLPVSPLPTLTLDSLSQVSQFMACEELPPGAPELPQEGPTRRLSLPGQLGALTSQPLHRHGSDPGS

[5] = test system: CYP1A2, CYP2B6, CYP2C8, CYP2D6, CYP3A4; assay: CYP inhibition panel at 10 μM, remaining isoforms; type: in vitro ADME; conditions: human
[6] = Mouse PK study, plasma and jejunum; type: in vivo, CD-1 mice; conditions: male, CD-1, mouse, iv, 1 mg/kg
[7] = test system: C. parvum; assay: NSG mouse model of C. parvum infection; conditions: 50 mg/kg twice daily by oral gavage, days 7-10; fecal qPCR; n=4
[8] = test system: C. parvum; conditions: previous work, cited from earlier work
[9] = biological target: human potassium channel hERG (Homo sapiens, UniProt Q12809); assay: hERG [3H]-dofetilide competitive binding assay; conditions: 10 μM; inhibition of [3H]-dofetilide binding
Chain of human potassium channel hERG (Q12809 whole entry): as the sequence (Q12809 whole entry, canonical isoform) above

[10] = biological target: human p-glycoprotein (Pgp) multi-drug resistance (MDR) transporter (Homo sapiens, UniProt P08183); assay: MDR1 transporter assay; type: in vitro ADME; conditions: 10 μM, 2 hours
[11] = test system: human Ether-a-go-go-Related Gene (hERG); conditions: read-out: hERG IC50; reported value; cited from earlier work
[12] = biological target: T1, hERG; assay: hERG [3H]-dofetilide competitive binding assay; conditions: human, probe [3H]-dofetilide

## 2-(3,4-dichlorophenyl)-1-(2-methyl-4-{[1,2,4]triazolo[4,3-b]pyridazin-6-yl}piperazin-1-yl)ethan-1-one [Compound 10c]
[1]
  fold loss of potency: > 50 fold

## CN(C(=O)N1CCN(c2ccc3nncn3n2)CC1)c1ccc(Cl)c(Cl)c1 [Compound 11, N-(3,4-dichlorophenyl)-N-methyl-4-{[1,2,4]triazolo[4,3-b]pyridazin-6-yl}piperazine-1-carboxamide]
[1]
  change of potency, in words: dramatic loss of potency

## O=C(Cc1cccc(Cl)c1)N1CCN(c2ccc3nncn3n2)CC1 [Compound 29j, 2-(3-chlorophenyl)-1-(4-{[1,2,4]triazolo[4,3-b]pyridazin-6-yl}piperazin-1-yl)ethan-1-one]
[1]; Cp HCT-8 EC50, Table 2
  fold less potent than chlorine in the 4-position: 4 fold

## O=C(Cc1ccc(Cl)c(Cl)c1)N1CCN(c2ccc3nncn3n2)CC1 [Compound 12a, 2-(3,4-Dichlorophenyl)-1-(4-{[1,2,4]triazolo[4,3-b]pyridazin-6-yl}piperazin-1-yl)ethan-1-one]
[2]; based on estimated decay rate, at six times the EC90
  time of exposure to eliminate 99.9% of parasites: ≤ 98 h
[3]
  cytotoxicity in HCT-8 cells, in words: non-cytotoxic in HCT-8 cells
[4]
  IC50: ~8 µM
[4]; safety margin
  hERG margin using EC50, not corrected for plasma protein binding: > 40 fold
[5]
  inhibition at 10 µM: ≤ 10%
[6]; jejunum
  clearance: 0.7 mL/min/kg
[6]; plasma
  clearance at 6 h: 0.317 mL/min/kg
[7]
  mice with no parasites detected ten days after completing treatment: 3 of 4 and three of the four

## CC(=O)Oc1ccccc1C(=O)Nc1ncc([N+](=O)[O-])s1 [NTZ, nitazoxanide, reference compound]
[2]; HCT-8 cultures
  host cell cytotoxicity in time-kill assay: cytotoxic at concentrations above the EC90
[2]
  effect on parasite numbers in time-kill assay: blocked C. parvum growth without eliminating the parasite from HCT-8 cultures
[8]; read-out: EC50, parasite growth in vitro
  EC50: 3.8 µM

## O=S(=O)(Cc1ccc(Cl)c(Cl)c1)N1CCN(c2ccc3nncn3n2)CC1 [Compound 13, 1-[(3,4-dichlorophenyl)methanesulfonyl]-4-{[1,2,4]triazolo[4,3-b]pyridazin-6-yl}piperazine]
[1]
  change of potency, in words: dramatic loss of potency

## CC1CN(c2ccc3nncn3n2)CCN1C(=O)Cc1ccc(Cl)c(Cl)c1 (stereo not shown) [Compound 12d, 2-(3,4-dichlorophenyl)-1-(2-methyl-4-{[1,2,4]triazolo[4,3-b]pyridazin-6-yl}piperazin-1-yl)ethan-1-one]
[1]
  fold loss of potency: > 50 fold

## N-(3,4-dichlorophenyl)-4-{[1,2,4]triazolo[4,3-b]pyridazin-6-yl}cyclohex-3-ene-1-carboxamide [Compound 18a]
[1]
  change of potency, in words: equipotent to its N-linked counterpart 2
[9]
  hERG binding, %inh: 56%
[10]
  MDCK-MDR Efflux Ratio: 6.5

## O=C(Cc1ccc(F)cc1)N1CCN(c2ccc3nncn3n2)CC1 [Compound 29h, 2-(4-fluorophenyl)-1-(4-{[1,2,4]triazolo[4,3-b]pyridazin-6-yl}piperazin-1-yl)ethan-1-one]
[1]; Cp HCT-8 EC50, Table 2
  fold more potent than H (entry 1, 29a): 18 fold

## O=C(Nc1ccc(Cl)c(Cl)c1)N1CCCN(c2ccc3nncn3n2)CC1 [Compound 10b, N-(3,4-dichlorophenyl)-4-{[1,2,4]triazolo[4,3-b]pyridazin-6-yl}-1,4-diazepane-1-carboxamide]
[1]
  fold loss of potency: > 50 fold

## O=C(Cc1ccc(Cl)cc1)N1CCN(c2ccc3nncn3n2)CC1 [Compound 29i, 2-(4-chlorophenyl)-1-(4-{[1,2,4]triazolo[4,3-b]pyridazin-6-yl}piperazin-1-yl)ethan-1-one]
[1]; Cp HCT-8 EC50, Table 2
  fold more potent than H (entry 1, 29a): 25 fold

## O=C(Cc1ccc(Cl)c(Cl)c1)N1CCCN(c2ccc3nncn3n2)CC1 [Compound 12c, 2-(3,4-dichlorophenyl)-1-(4-{[1,2,4]triazolo[4,3-b]pyridazin-6-yl}-1,4-diazepan-1-yl)ethan-1-one]
[1]
  fold loss of potency: > 50 fold

## O=C(Nc1ccc(Cl)cc1)N1CCN(c2ccc3nncn3n2)CC1 [Compound 1, reference compound]
[4]
  IC50: ~10 µM
[4]; safety margin
  hERG IC50 versus Cp EC90(free) ratio: ~ 4 fold
[11]
  IC50: ~10 µM

## O=C(Nc1ccc(Cl)c(Cl)c1)N1CCN(c2ccc3nncn3n2)CC1 [Compound 2, 4-([1,2,4]triazolo[4,3-b]pyridazin-6-yl)-N-(3,4-dichlorophenyl)piperazine-1-carboxamide]
[2]
  effect on parasite numbers in time-kill assay: parasite numbers declined exponentially
[12]
  inhibition at 10 µM: ~50%
[4]; human, CHO cells that express hERG
  inhibition at 1 µM: > 40%
[8]
  fold more potent than MMV665917: about 4 fold

## O=C(c1ccc(Cl)c(Cl)c1)N1CCN(c2ccc3nncn3n2)CC1 [Compound 12b, 1-(3,4-dichlorobenzoyl)-4-{[1,2,4]triazolo[4,3-b]pyridazin-6-yl}piperazine]
[1]; Cp HCT-8 EC50
  fold loss of potency relative to 12a: > 100 fold
